Two molecules from patent US20100120737A1, “Amorphous ciclesonide” (priority 2008, published 2010) can be followed below.

In brackets after ≈: the same amount, converted by molar mass.

Format in all cases: physicochemical
A short description of series [1]: Stability under elevated pressure (recrystallization). Conditions: pressure of up to 2.500 for 5 min. From the text:
Such a stability against pressure is particularly desirable when a pharmaceutical agent is used for preparation of solid pharmaceutical compositions such as tablets or granules.

Series [2] can be described thus: Dissolution experiments (dissolution kinetics in water). How it is done:
For each timepoint (5 min, 10 min, 20 min, 35 min, 60 min and 1440 min) of the dissolution experiment, three samples each of X-ray amorphous and crystalline ciclesonide were prepared by weighing a defined amount of in each case about 15 mg into a 250 ml conical wide-necked Erlenmeyer flask and stirring (850 rpm, glass coated magnetic stir bar, having a length of 2.4 cm and a diameter of 0.59 cm) the samples at 37° C. in 100 ml water (Millipore quality, ELIX 3, Gradient A 10, pH 5.92-6.00). The moment of the addition of water was defined as t0. The tempering of the samples was performed using an air bath. After the desired stirring time, the complete samples were filtered through a 0.2 μm membrane filter (Schleicher & Schuell, RC 0.2 μm Spartan 30/A) and concentrated on a Sep-Pak cartridge (Waters Sep-Pak cartridge C18, WAT051910). The cartridge was then eluted with ethanol (gradient grade, Merck). The ciclesonide in the ethanol solution was then quantified by HPLC (LaChrom®-HPLC System Series 7000, column: Zorbax SB phenyl, eluent: water/ethanol 38%: 62% (v/v) isocratic, column temperature: 60° C., injection volume: 50 μL, UV-detection at 243 nm) against an external standard.

A short description of series [3]: Saturation solubility experiments. Conditions: water, 24 hours stirring after ultrasonic treatment. The procedure:
Defined amounts of in each case about 14 to 25 mg of X-ray amorphous or crystalline ciclesonide were weighed into a conical Erlenmeyer flask equipped with a rubber stopper (n=3). 100 ml of water (Millipore quality. ELIX 3. Gradient A 10, pH 5.92-6.00) were added and 30 minutes of ultrasonic treatment was applied to the samples. Afterwards the samples were stirred in the dark for 24 hours at 37° C. in a water bath. After the desired stirring time, each sample was filtered through a 0.2 μm membrane filter (Schleicher & Schuell, RC 0.2 μm Spartan 30/A) and concentrated on a Sep-Pak cartridge (Waters Sep-Pak cartridge C18, WAT051910). Then the cartridge was eluted with ethanol (gradient grade, Merck). The ciclesonide in the ethanol solution was then quantified by HPLC (LaChrom®-HPLC System Series 7000, column: Zorbax SB phenyl, eluent: water/ethanol 38%: 62% (v/v) isocratic, column temperature: 60° C., injection volume: 50 μL, UV-detection at 243 nm) against an external standard.

The next series in a line: Hygroscopicity.

One may read the solubility as the dissolved amount per volume that the medium holds. The low end stands for a poorly soluble substance, the high end for a readily soluble substance.

Consider `CC(C)C(=O)OCC(=O)[C@@]12OC(C3CCCCC3)O[C@@H]1CC1[C@@H]3CCC4=CC(=O)C=C[C@]4(C)[C@H]3[C@@H](O)C[C@@]12C` (stereo partly drawn) [amorphous ciclesonide, 16,17-[(Cyclohexyl-methylene)bis(oxy)]-11-hydroxy-21-(2-methyl-1-oxopropoxy)-pregna-1,4-diene-3,20-dione[11β,16α]], for which the recrystallization under pressure entry in series [1] was “did not show any signs of recrystallization”. The “concentration of dissolved ingredient after 20 minutes” value in series [2] (37° C., after 20 minutes) was 340 ng/mL. In addition, the “concentration of dissolved ciclesonide after 24 hours” value in series [2] (37° C., after 24 hours) is 105 ng/mL. Further, the “concentration of dissolved ingredient within 5 minutes” value in series [2] (37° C., within 5 minutes) stood at 290 ng/mL. In series [2] (after 1 hour, amorphous vs crystalline), the “concentration of dissolved ingredient relative to crystalline ciclesonide after 1 hour” value is recorded as “about sevenfold”. This molecule displayed a saturation solubility in series [3] (37° C.) of 0.0916 ± 0.0052 µg/mL. For the same molecule, the hygroscopicity entry in “Hygroscopicity” was “not hygroscopic”.

`CC(C)C(=O)OCC(=O)[C@@]12OC(C3CCCCC3)O[C@@H]1CC1[C@@H]3CCC4=CC(=O)C=C[C@]4(C)[C@H]3[C@@H](O)C[C@@]12C` (stereo partly drawn) [crystalline ciclesonide, 16,17-[(Cyclohexyl-methylene)bis(oxy)]-11-hydroxy-21-(2-methyl-1-oxopropoxy)-pregna-1,4-diene-3,20-dione[11β,16α], reference compound]: the solubility at 1 h in series [2] (pH 6, thermodynamic from solid, 37° C., after 1 hour) is roughly 0.05 µg/mL (≈ 0.0925 µM). In series [3] (37 °C, pH 6, water, thermodynamic from solid), the solubility at 24 h is roughly 0.091 µg/mL (≈ 0.168 µM).
